Results: US6660755B2, “Substituted diaryl or diheteroaryl methans, ethers and amines having retinoid agonist, antagonist or inverse agonist type biological activity” (Allergan, Inc., priority 1997, dated 2003)

Tests used:
RARα [1] = target: RARα (Homo sapiens, UniProt P10276, E106G/G107S/G110V); test: PGR assay (RAR-P-GR holoreceptor transactivation), RARα; format: cell-based; details: for Emax: 18 h; for EC50: PGR assay (transactivation), CV-1 cells, luciferase reporter
Excerpt: (§1) A holoreceptor transactivation assay and a ligand binding assay which measure the antagonist/agonist like activity of the compounds of the invention, or their ability to bind to the several retinoid receptor subtypes, respectively, are described in published PCT Application No. WO WO93/11755 (particularly on pages 30-33 and 37-41) published on Jun. 24, 1993, the specification of which is also incorporated herein by reference. A detailed experimental procedure for holoreceptor transactivations has been described by Heyman et al. Cell 1992, 68, 397-406; Allegretto et al. J. Biol. Chem. 1993 268, 26625-26633, and Mangelsdorf et al. The Retinoids: Biology, Chemistry and Medicine, pp 319-349, Raven Press Ltd., New York, which are expressly incorporated herein by reference. The results obtained in this assay are expressed in EC50 numbers, as they are also in the chimeric receptor transactivation assay. The results of ligand binding assay are expressed in Kd numbers. (See Cheng et al. Biochemical Pharmacology 22, 3099-3108, expressly incorporated herein by reference.) Still another transactivation assay, the “PGR assay” is described in the publication Klein et al. J. Biol. Chem. 1996, 271, 22692-22696, which is expressly incorporated herein by reference, and a detailed description is also provided below. The results of the PGR assay are also expressed in EC50 numbers (nanomolar concentration).
RAR-P-GR holoreceptor Transactivation Assay
CV-1 cells (4×10^5 cells/well) were transiently transfected with the luciferase reporter plasmid MTV-4(R5G)-Luc (0.7 μg/well) containing four copies of the R5G retinoid DNA response element along with the RXRα expression plasmid pRS-hRXRa (0.1 μg/well) and one of the RAR-P-GR expression plasmids (0.05 μg/well) in 12 well plates via calcium phosphate precipitation Chen et al. Mol. Cell. Biol. 1987, 7, 2745-2752 as described by Klein et al. J. Biol. Chem. 1996, 271, 22692, referenced above. The three different RAR-P-GR expression plasmids, pRS-RARα-P-GR, pcDNA3-RARβ-P-GR and pcDNA3-RARγ-P-GR, express RARα, RARβ and RARγ receptors, respectively, which contain modified DNA binding domains such that their “P-boxes” have been altered to that of the glucocorticoid receptor. These RAR-P-GR receptors bind to DNA as heterodimeric complexes with RXR. Specifically, the RAR-P-GR receptors bind retinoic acid response elements designated R5G, comprised of two RAR half sites (nucleotide sequence 5′-GGTTCA-3′) separated by 5 base pairs in which the 3′-half site has been modified to that of a glucocorticoid receptor half site, 5′-AGAACA-3′. To allow for various in transfection efficiency a β-galactosidase expression plasmid (0.01 μg/well) was used as an internal control. Alternatively, the assay was performed in a 96-well microtiter plate format (5000 cells/well) in a manner which was identical to that described above except ⅕ of the amount of the DNA-calcium phosphate precipitant (20 μl instead of 100 Al) was applied to each well. Eighteen hours after introduction of the DNA precipitants, cells were rinsed with phosphate buffered saline (PBS) and fed with D-MEM (Gibco-BRL) containing 10% activated charcoal extracted fetal bovine serum (Gemini Bio-Products). After rinsing with PBS cells were lysed with luciferase activity was measured as previously described in de Wet Mol. Cell. Biol. 1987, 7, 725-737. Luciferase values represent the mean±SEM of triplicate determinations normalized to β-galactosidase activity. The results of the PGR assay are also expressed in EC50 numbers (nanomolar concentration).

RARγ = target: T1, RARγ (Homo sapiens, UniProt P13631); test: Ligand binding assay, RARγ
T1 sequence (P13631 1-454): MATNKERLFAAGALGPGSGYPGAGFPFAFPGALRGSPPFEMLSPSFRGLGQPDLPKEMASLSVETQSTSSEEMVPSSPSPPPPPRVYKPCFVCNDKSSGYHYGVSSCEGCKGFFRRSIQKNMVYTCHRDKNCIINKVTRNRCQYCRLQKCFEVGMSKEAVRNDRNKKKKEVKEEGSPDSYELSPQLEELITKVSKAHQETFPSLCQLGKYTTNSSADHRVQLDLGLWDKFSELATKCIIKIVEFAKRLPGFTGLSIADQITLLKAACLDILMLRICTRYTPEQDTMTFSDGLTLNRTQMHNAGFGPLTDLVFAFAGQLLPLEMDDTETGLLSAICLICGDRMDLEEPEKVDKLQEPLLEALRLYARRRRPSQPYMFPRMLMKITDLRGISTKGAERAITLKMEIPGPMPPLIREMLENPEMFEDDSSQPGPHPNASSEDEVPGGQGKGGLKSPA
Excerpt: as §1

RARα [2] = target: T2, RARα (Homo sapiens, UniProt P10276); test: Ligand binding assay, RARα
T2 sequence (P10276 1-462): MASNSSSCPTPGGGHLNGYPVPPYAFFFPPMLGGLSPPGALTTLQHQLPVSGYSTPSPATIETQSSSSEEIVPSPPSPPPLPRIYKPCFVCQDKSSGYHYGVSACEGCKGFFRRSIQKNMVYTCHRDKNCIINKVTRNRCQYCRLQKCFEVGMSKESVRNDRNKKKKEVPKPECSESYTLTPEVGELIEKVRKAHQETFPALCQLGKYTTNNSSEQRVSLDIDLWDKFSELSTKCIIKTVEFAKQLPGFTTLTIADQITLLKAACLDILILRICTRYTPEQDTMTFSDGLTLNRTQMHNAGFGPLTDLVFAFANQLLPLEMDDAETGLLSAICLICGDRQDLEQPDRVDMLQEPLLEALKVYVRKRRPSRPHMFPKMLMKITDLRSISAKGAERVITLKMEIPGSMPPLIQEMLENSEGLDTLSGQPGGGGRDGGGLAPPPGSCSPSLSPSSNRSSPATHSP
Excerpt: as §1

[3] = efficiency relative to all-trans-retinoic acid, PGR assay

Chain of RARα (Homo sapiens, UniProt P10276, E106G/G107S/G110V) (P10276 whole entry E106G/G107S/G110V): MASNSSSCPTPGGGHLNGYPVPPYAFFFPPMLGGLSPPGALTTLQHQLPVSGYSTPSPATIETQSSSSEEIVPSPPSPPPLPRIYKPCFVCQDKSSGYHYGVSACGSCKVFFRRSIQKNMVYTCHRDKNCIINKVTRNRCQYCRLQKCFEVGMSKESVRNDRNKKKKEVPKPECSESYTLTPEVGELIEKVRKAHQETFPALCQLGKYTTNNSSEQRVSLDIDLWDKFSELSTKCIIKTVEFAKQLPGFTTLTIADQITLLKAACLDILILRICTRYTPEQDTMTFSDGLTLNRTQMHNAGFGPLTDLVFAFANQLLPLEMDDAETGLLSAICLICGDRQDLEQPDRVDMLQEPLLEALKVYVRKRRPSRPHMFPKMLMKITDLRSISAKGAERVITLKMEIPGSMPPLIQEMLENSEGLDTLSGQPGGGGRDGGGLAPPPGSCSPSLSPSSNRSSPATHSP
Chain of RARα (Homo sapiens, UniProt P10276, E106G/G107S/G110V) (P19793 whole entry, further chain): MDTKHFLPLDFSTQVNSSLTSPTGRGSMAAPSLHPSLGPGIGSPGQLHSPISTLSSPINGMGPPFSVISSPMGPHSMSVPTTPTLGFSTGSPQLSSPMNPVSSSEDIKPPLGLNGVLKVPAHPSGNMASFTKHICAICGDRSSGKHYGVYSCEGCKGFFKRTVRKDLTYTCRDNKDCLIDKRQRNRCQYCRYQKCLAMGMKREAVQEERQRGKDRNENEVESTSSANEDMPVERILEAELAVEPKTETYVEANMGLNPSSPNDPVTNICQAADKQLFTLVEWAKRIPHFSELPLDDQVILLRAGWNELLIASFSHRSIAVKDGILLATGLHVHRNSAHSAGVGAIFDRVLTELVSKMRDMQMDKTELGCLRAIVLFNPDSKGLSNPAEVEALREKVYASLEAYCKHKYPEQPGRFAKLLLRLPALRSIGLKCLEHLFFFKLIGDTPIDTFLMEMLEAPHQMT

| Emax (RARα [1]; [3]) [%] | EC50 (RARα [1]) [nM] | Kd (RARγ) [nM] | Kd (RARα [2]) [nM] | % Efficiency RARα (RARα [1]; [3]) [%] | Compound |
| --- | --- | --- | --- | --- | --- |
| 0 | > 10000 | 66 | 15 |  | COC(=O)c1ccc(Oc2cc(C#Cc3ccc(C(=O)O)c(F)c3)ccc2C(C)(C)C)cc1 [Compound 10, 4-[[4′-tert-Butyl-3′-(4″-carbomethoxy)phenoxy]phenylethynyl]-2-fluorobenzoic Acid] |
| 0 | > 10000 | 112 | 24 |  | CC(C)(C)c1ccc(C#Cc2ccc(C(=O)O)c(F)c2)cc1Oc1ccc([N+](=O)[O-])cc1 [Compound 11, 4-[[4′-tert-Butyl-3′-(4″-nitro)phenoxy]phenylethynyl]-2-fluoro-benzoic Acid] |
| 0 | > 10000 | 5690 | 11 |  | CC(C)(C)c1ccc(C(=O)Nc2ccc(C(=O)O)c(F)c2)cc1Oc1ccc(C(F)(F)F)cc1 [Compound 13, 4-[[4′-tert-Butyl-3′-(4″-trifluoromethyl)phenoxy]benzoylamino]-2-fluorobenzoic Acid] |
|  | > 10000 | 317 | 1050 | 0 | CC(C)(C)c1ccc(C#Cc2ccc(C(=O)O)cn2)cc1Oc1ccc(C(F)(F)F)cc1 [Compound 6, 6-[[4′-tert-Butyl-3′-(4″-trifluomethyl)phenoxy]phenylethynyl]-3-nicotinic Acid] |
